In patent US20120071522A1, “THERMAL STABILIZATION OF BIOCIDES IN MATRIX COMPOSITIONS PROCESSED AT ELEVATED TEMPERATURES” (priority 2004, published 2012):

Test: Thermal stability (color change) of biocide in polyethylene and wood-plastic composite matrixes processed at elevated temperatures
Assay type: physicochemical

Row | Compound | color change
1 | O=C1c2ccccc2C(=O)N1SC(Cl)(Cl)Cl [Fungitrol® 11, N-(trichloromethylthio) phthalimide] | no color change
2 | CCCCNC(=O)OCC#CI [IPBC] | no color change
